From patent US7524869B2, “Taxanes having a C10 ester substituent” (Florida State University Research Foundation, Inc., priority 2000, dated 2009) come the findings set out here.

The assay has as its system HCT116. In words: In vitro cytotoxicity measured by the cell colony formation assay. The assay is classed as cell-based. The note with it: HCT116 cells, 72 h drug incubation, colonies counted after 7 days; ID50 = drug concentration producing 50% inhibition of colony formation; read-out: IN VITRO ID 50 (nm) HCT116. On the procedure: In Vitro Cytotoxicity Measured by the Cell Colony Formation Assay
Four hundred cells (HCT116) were plated in 60 mm Petri dishes containing 2.7 mL of medium (modified McCoy's 5a medium containing 10% fetal bovine serum and 100 units/mL penicillin and 100 µg/mL streptomycin). The cells were incubated in a CO2 incubator at 37° C. for 5 h for attachment to the bottom of Petri dishes. The compounds identified in Example 2 were made up fresh in medium at ten times the final concentration, and then 0.3 mL of this stock solution was added to the 2.7 mL of medium in the dish. The cells were then incubated with drugs for 72 h at 37° C. At the end of incubation the drug-containing media were decanted, the dishes were rinsed with 4 mL of Hank's Balance Salt Solution (HBSS), 5 mL of fresh medium was added, and the dishes were returned to the incubator for colony formation. The cell colonies were counted using a colony counter after incubation for 7 days.

pIC50: −log10 of the molar value.

For `CC(=O)O[C@@]12CO[C@@H]1C[C@H](O)[C@@]1(C)C(=O)[C@H](OC(=O)C3CC3)C3=C(C)[C@@H](OC(=O)[C@H](O)[C@@H](NC(=O)OC(C)(C)C)c4ccccc4)C[C@@](O)([C@@H](OC(=O)c4ccccc4)C12)C3(C)C` (some centres unmarked) [Compound 0882], the pIC50 was above 9.00.

For `CCC(=O)O[C@H]1C(=O)[C@@]2(C)C([C@H](OC(=O)c3ccccc3)[C@]3(O)C[C@H](OC(=O)[C@H](O)[C@@H](NC(=O)OC(C)(C)C)c4ccoc4)C(C)=C1C3(C)C)[C@]1(OC(C)=O)CO[C@@H]1C[C@@H]2O` (some centres unmarked) [Compound 5495], the pIC50 is above 9.00.

In the case of `CC(=O)OC12COC1CC(O)C1(C)C(=O)C(OC(=O)c3ccco3)C3=C(C)C(OC(=O)C(O)C(NC(=O)OC(C)(C)C)c4cccs4)CC(O)(C(OC(=O)c4ccccc4)C21)C3(C)C` (centres unmarked) [Compound 2164], the pIC50 was above 9.00.

Regarding `CCC(=O)O[C@H]1C(=O)[C@@]2(C)C([C@H](OC(=O)c3ccccc3)[C@]3(O)C[C@H](OC(=O)[C@H](O)[C@@H](NC(=O)c4ccccc4)c4ccoc4)C(C)=C1C3(C)C)[C@]1(OC(C)=O)CO[C@@H]1C[C@@H]2O` (some centres unmarked) [Compound 0670], the pIC50 was above 9.00.

For the molecule `CCCC(=O)O[C@H]1C(=O)[C@@]2(C)C([C@H](OC(=O)c3ccccc3)[C@]3(O)C[C@H](OC(=O)[C@H](O)[C@@H](NC(=O)OC(C)(C)C)c4ccsc4)C(C)=C1C3(C)C)[C@]1(OC(C)=O)CO[C@@H]1C[C@@H]2O` (some centres unmarked) [Compound 1011], the pIC50 is above 9.00.

With `CCC(=O)O[C@H]1C(=O)[C@@]2(C)C([C@H](OC(=O)c3ccccc3)[C@]3(O)C[C@H](OC(=O)[C@H](O)[C@@H](NC(=O)c4ccccc4)C4CCC4)C(C)=C1C3(C)C)[C@]1(OC(C)=O)CO[C@@H]1C[C@@H]2O` (some centres unmarked) [Compound 0720], the pIC50 is above 8.00.

With `CCCC(=O)O[C@H]1C(=O)[C@@]2(C)C([C@H](OC(=O)c3ccccc3)[C@]3(O)C[C@H](OC(=O)[C@H](O)[C@@H](NC(=O)OCC(C)C)C4CC4)C(C)=C1C3(C)C)[C@]1(OC(C)=O)CO[C@@H]1C[C@@H]2O` (some centres unmarked) [Compound 4808], the pIC50 is above 8.00.

Consider `CCCC(=O)O[C@H]1C(=O)[C@@]2(C)C([C@H](OC(=O)c3ccccc3)[C@]3(O)C[C@H](OC(=O)[C@H](O)[C@@H](NC(=O)c4cccnc4)c4cccs4)C(C)=C1C3(C)C)[C@]1(OC(C)=O)CO[C@@H]1C[C@@H]2O` (some centres unmarked) [Compound 4190], for which the pIC50 was above 8.00.

For the molecule `CCCC(=O)O[C@H]1C(=O)[C@@]2(C)C([C@H](OC(=O)c3ccccc3)[C@]3(O)C[C@H](OC(=O)[C@H](O)[C@@H](NC(=O)OC(C)(C)C)c4ccccn4)C(C)=C1C3(C)C)[C@]1(OC(C)=O)CO[C@@H]1C[C@@H]2O` (some centres unmarked) [Compound 0951], the pIC50 was above 9.00.

With `CCCC(=O)O[C@H]1C(=O)[C@@]2(C)C([C@H](OC(=O)c3ccccc3)[C@]3(O)C[C@H](OC(=O)[C@H](O)[C@@H](NC(=O)c4ccco4)c4cccs4)C(C)=C1C3(C)C)[C@]1(OC(C)=O)CO[C@@H]1C[C@@H]2O` (some centres unmarked) [Compound 3352], the pIC50 is above 9.00.

For the molecule `C/C=C/C(=O)O[C@H]1C(=O)[C@@]2(C)C([C@H](OC(=O)c3ccccc3)[C@]3(O)C[C@H](OC(=O)[C@H](O)[C@@H](NC(=O)OC(C)(C)C)c4cccs4)C(C)=C1C3(C)C)[C@]1(OC(C)=O)CO[C@@H]1C[C@@H]2O` (some centres unmarked) [Compound 2392], the pIC50 was above 9.00.

Turning to `CCC(=O)O[C@H]1C(=O)[C@@]2(C)C([C@H](OC(=O)c3ccccc3)[C@]3(O)C[C@H](OC(=O)[C@H](O)[C@H](C=C(C)C)NC(=O)c4ccccc4)C(C)=C1C3(C)C)[C@]1(OC(C)=O)CO[C@@H]1C[C@@H]2O` (some centres unmarked) [Compound 0625], the pIC50 was above 9.00.

Regarding `C/C=C/C(=O)N[C@@H](c1cccs1)[C@@H](O)C(=O)O[C@H]1C[C@@]2(O)[C@@H](OC(=O)c3ccccc3)C3[C@](C)(C(=O)[C@H](OC(=O)CC)C(=C1C)C2(C)C)[C@@H](O)C[C@H]1OC[C@@]31OC(C)=O` (some centres unmarked) [Compound 3494], the pIC50 is above 9.00.

As for `CCCC(=O)O[C@H]1C(=O)[C@@]2(C)C([C@H](OC(=O)c3ccccc3)[C@]3(O)C[C@H](OC(=O)[C@H](O)[C@H](C=C(C)C)NC(=O)OCC(C)C)C(C)=C1C3(C)C)[C@]1(OC(C)=O)CO[C@@H]1C[C@@H]2O` (some centres unmarked) [Compound 5144], the pIC50 was above 8.00.

Consider `CC(=O)O[C@@]12CO[C@@H]1C[C@H](O)[C@@]1(C)C(=O)[C@H](OC(=O)C=C(C)C)C3=C(C)[C@@H](OC(=O)[C@H](O)[C@@H](NC(=O)OC(C)(C)C)c4ccoc4)C[C@@](O)([C@@H](OC(=O)c4ccccc4)C12)C3(C)C` (some centres unmarked) [Compound 2499], for which the pIC50 was above 9.00.

As for `CCC(=O)O[C@H]1C(=O)[C@@]2(C)C([C@H](OC(=O)c3ccccc3)[C@]3(O)C[C@H](OC(=O)[C@H](O)[C@@H](NC(=O)OC(C)(C)C)c4cccs4)C(C)=C1C3(C)C)[C@]1(OC(C)=O)CO[C@@H]1C[C@@H]2O` (some centres unmarked) [Compound 0550], the pIC50 was above 8.00.

For `CC(=O)O[C@@]12CO[C@@H]1C[C@H](O)[C@@]1(C)C(=O)[C@H](OC(=O)C=C(C)C)C3=C(C)[C@@H](OC(=O)[C@H](O)[C@@H](NC(=O)OC(C)(C)C)c4ccccc4)C[C@@](O)([C@@H](OC(=O)c4ccccc4)C12)C3(C)C` (some centres unmarked) [Compound 2520], the pIC50 is above 8.00.

In the case of `CCCC(=O)O[C@H]1C(=O)[C@@]2(C)C([C@H](OC(=O)c3ccccc3)[C@]3(O)C[C@H](OC(=O)[C@H](O)[C@@H](NC(=O)OCC(C)C)c4ccco4)C(C)=C1C3(C)C)[C@]1(OC(C)=O)CO[C@@H]1C[C@@H]2O` (some centres unmarked) [Compound 3110], the pIC50 is above 9.00.

As to `CCC(=O)O[C@H]1C(=O)[C@@]2(C)C([C@H](OC(=O)c3ccccc3)[C@]3(O)C[C@H](OC(=O)[C@H](O)[C@@H](NC(=O)OC(C)(C)C)c4ccccn4)C(C)=C1C3(C)C)[C@]1(OC(C)=O)CO[C@@H]1C[C@@H]2O` (some centres unmarked) [Compound 0503], the pIC50 is above 9.00.

`CC(=O)O[C@@]12CO[C@@H]1C[C@H](O)[C@@]1(C)C(=O)[C@H](OC(=O)C(C)C)C3=C(C)[C@@H](OC(=O)[C@H](O)[C@@H](NC(=O)OC(C)(C)C)c4cccs4)C[C@@](O)([C@@H](OC(=O)c4ccccc4)C12)C3(C)C` (some centres unmarked) [Compound 2287]: the pIC50 was above 9.00.

In the case of `CC(=O)O[C@@]12CO[C@@H]1C[C@H](O)[C@@]1(C)C(=O)[C@H](OC(=O)C(C)C)C3=C(C)[C@@H](OC(=O)[C@H](O)[C@@H](NC(=O)OC(C)(C)C)c4ccncc4)C[C@@](O)([C@@H](OC(=O)c4ccccc4)C12)C3(C)C` (some centres unmarked) [Compound 2255], the pIC50 is above 9.00.

As to `CC(=O)OC12COC1CC(O)C1(C)C(=O)C(OC(=O)c3ccco3)C3=C(C)C(OC(=O)C(O)C(NC(=O)OC(C)(C)C)c4ccc([N+](=O)[O-])cc4)CC(O)(C(OC(=O)c4ccccc4)C21)C3(C)C` (centres unmarked) [Compound 2202], the pIC50 was above 9.00.

Regarding `CC(=O)OC12COC1CC(O)C1(C)C(=O)C(OC(=O)C(C)C)C3=C(C)C(OC(=O)C(O)C(NC(=O)OC(C)(C)C)c4ccccn4)CC(O)(C(OC(=O)c4ccccc4)C21)C3(C)C` (centres unmarked) [Compound 2238], the pIC50 is above 9.00.

As to `C/C=C/C(=O)N[C@@H](c1ccco1)[C@@H](O)C(=O)O[C@H]1C[C@@]2(O)[C@@H](OC(=O)c3ccccc3)C3[C@](C)(C(=O)[C@H](OC(=O)CCC)C(=C1C)C2(C)C)[C@@H](O)C[C@H]1OC[C@@]31OC(C)=O` (some centres unmarked) [Compound 3994], the pIC50 was above 9.00.

For the molecule `CCCC(=O)OC1C(=O)C2(C)C(O)CC3OCC3(OC(C)=O)C2C(OC(=O)c2ccccc2)C2(O)CC(OC(=O)C(O)C(NC(=O)OC(C)(C)C)C3CCC3)C(C)=C1C2(C)C` (centres unmarked) [Compound 1044], the pIC50 is above 9.00.

As to `CCC(=O)O[C@H]1C(=O)[C@@]2(C)C([C@H](OC(=O)c3ccccc3)[C@]3(O)C[C@H](OC(=O)[C@H](O)[C@@H](NC(=O)c4ccccc4)c4ccco4)C(C)=C1C3(C)C)[C@]1(OC(C)=O)CO[C@@H]1C[C@@H]2O` (some centres unmarked) [Compound 0663], the pIC50 is above 9.00.

Consider `CCCC(=O)N[C@@H](c1ccco1)[C@@H](O)C(=O)O[C@H]1C[C@@]2(O)[C@@H](OC(=O)c3ccccc3)C3[C@](C)(C(=O)[C@H](OC(=O)CCC)C(=C1C)C2(C)C)[C@@H](O)C[C@H]1OC[C@@]31OC(C)=O` (some centres unmarked) [Compound 3222], for which the pIC50 was above 9.00.

On to `C/C=C/C(=O)O[C@H]1C(=O)[C@@]2(C)C([C@H](OC(=O)c3ccccc3)[C@]3(O)C[C@H](OC(=O)[C@H](O)[C@@H](NC(=O)OC(C)(C)C)c4ccccc4)C(C)=C1C3(C)C)[C@]1(OC(C)=O)CO[C@@H]1C[C@@H]2O` (some centres unmarked) [Compound 2442], for which the pIC50 was above 9.00.

Turning to `CC(=O)O[C@@]12CO[C@@H]1C[C@H](O)[C@@]1(C)C(=O)[C@H](OC(=O)C(C)C)C3=C(C)[C@@H](OC(=O)[C@H](O)[C@@H](NC(=O)OC(C)(C)C)c4cccnc4)C[C@@](O)([C@@H](OC(=O)c4ccccc4)C12)C3(C)C` (some centres unmarked) [Compound 2242], the pIC50 was above 8.00.

In the case of `CCC(=O)O[C@H]1C(=O)[C@@]2(C)C([C@H](OC(=O)c3ccccc3)[C@]3(O)C[C@H](OC(=O)[C@H](O)[C@@H](NC(=O)c4cccs4)c4cccs4)C(C)=C1C3(C)C)[C@]1(OC(C)=O)CO[C@@H]1C[C@@H]2O` (some centres unmarked) [Compound 3425], the pIC50 was above 9.00.

Consider `CCC(=O)O[C@H]1C(=O)[C@@]2(C)C([C@H](OC(=O)c3ccccc3)[C@]3(O)C[C@H](OC(=O)[C@H](O)[C@@H](NC(=O)OC(C)(C)C)c4ccccc4)C(C)=C1C3(C)C)[C@]1(OC(C)=O)CO[C@@H]1C[C@@H]2O` (some centres unmarked) [Compound 0611], for which the pIC50 was above 8.00.

For the molecule `CCC(=O)O[C@H]1C(=O)[C@@]2(C)C([C@H](OC(=O)c3ccccc3)[C@]3(O)C[C@H](OC(=O)[C@H](O)[C@@H](NC(=O)OCC(C)C)C4CC4)C(C)=C1C3(C)C)[C@]1(OC(C)=O)CO[C@@H]1C[C@@H]2O` (some centres unmarked) [Compound 4799], the pIC50 is above 9.00.
